From the supplement of paper PMC11061612

What was measured:
Experiment in all cases: Bliss excess, mean over the matrix (fraction); higher = more synergy
[1] = test system: CAMA-1 (Breast Carcinoma)
In short: (§1)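 Cell lines in DMEM/F12 or RPMI with 10% FBS were plated in 1536-well plates, held 24 hours at 37°C, 5% CO2, then given two-drug dose matrices for 72 hours (DMSO typically 0.2%). Viability was read by CellTiter-Glo 2.0 luminescence and scaled as inhibition from 0 (vehicle wells) to 1 (blank wells). Combination Emax is the second-highest inhibition in the matrix; Bliss excess is observed combination effect minus expected EA + EB − EA·EB, EA and EB being single-agent effects.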

[2] = test system: BL-41 (Burkitt's Lymphoma)
In short: as §1

CHP-212 (Neuroblastoma) = test system: CHP-212 (Neuroblastoma)
In short: as §1

[3] = test system: KM12 (Colorectal Carcinoma)
In short: as §1

[4] = test system: TE-6 (Esophageal Squamous Cell Carcinoma)
In short: as §1

[5] = test system: PANC-08-13 (Pancreatic Carcinoma)
In short: as §1

[6] = test system: DND-41 (T-Lymphoblastic Leukemia)
In short: as §1

[7] = test system: MFM-223 (Breast Carcinoma)
In short: as §1

[8] = test system: NCI-H847 (Small Cell Lung Carcinoma)
In short: as §1

TC-71 (Ewing's Sarcoma) = test system: TC-71 (Ewing's Sarcoma)
In short: as §1

[9] = test system: MKN28 (Gastric Carcinoma)
In short: as §1

WIL2-NS (Non-Cancerous) = test system: WIL2-NS (Non-Cancerous)
In short: as §1

LN-18 (Glioblastoma) = test system: LN-18 (Glioblastoma)
In short: as §1

[10] = test system: KYSE-180 (Esophageal Squamous Cell Carcinoma)
In short: as §1

[11] = test system: TOV-112D (Ovarian Carcinoma)
In short: as §1

[12] = test system: SW1417 (Colorectal Carcinoma)
In short: as §1

[13] = test system: COLO-678 (Colorectal Carcinoma)
In short: as §1

[14] = test system: DiFi (Colorectal Carcinoma)
In short: as §1

MEL-JUSO (Melanoma) = test system: MEL-JUSO (Melanoma)
In short: as §1

[15] = test system: NCI-H1792 (Lung Adenocarcinoma)
In short: as §1

Row | SMILES | Bliss excess [1] | Bliss excess [2] | Bliss excess (CHP-212 (Neuroblastoma)) | Bliss excess [3] | Bliss excess [4] | Bliss excess [5] | Bliss excess [6] | Bliss excess [7] | Bliss excess [8] | Bliss excess (TC-71 (Ewing's Sarcoma)) | Bliss excess [9] | Bliss excess (WIL2-NS (Non-Cancerous)) | Bliss excess (LN-18 (Glioblastoma)) | Bliss excess [10] | Bliss excess [11] | Bliss excess [12] | Bliss excess [13] | Bliss excess [14] | Bliss excess (MEL-JUSO (Melanoma)) | Bliss excess [15]
1 | CC1(C)CCC(CN2CCN(c3ccc(C(=O)NS(=O)(=O)c4ccc(NCC5CCOCC5)c([N+](=O)[O-])c4)c(Oc4cnc5[nH]ccc5c4)c3)CC2)=C(c2ccc(Cl)cc2)C1 [Venetoclax] + COc1cc(Nc2ncc3c(n2)-c2ccc(Cl)cc2C(c2c(F)cccc2OC)=NC3)ccc1C(=O)O [Alisertib] (first compound max 1 µM, 7x7, partner max 10 µM) | -0.0072 | -0.0436 | -0.0654 | -0.0669 | 0.0047 | -0.032 | 0.116 | -0.0077 | 0.0304 | 0.0868 | -0.0541 | -0.0522 | 0.0481 | 0.0114 | 0.116 | -0.0705 | -0.0712 | 0.0661 | -0.0463 | 0.0603
2 | CC1(C)CCC(CN2CCN(c3ccc(C(=O)NS(=O)(=O)c4ccc(NCC5CCOCC5)c([N+](=O)[O-])c4)c(Oc4cnc5[nH]ccc5c4)c3)CC2)=C(c2ccc(Cl)cc2)C1 [Venetoclax] + Cn1cnc2c(F)c(Nc3ccc(Br)cc3Cl)c(C(=O)NOCCO)cc21 [Selumetinib] (first compound max 1 µM, 7x7, partner max 3 µM) | -0.0332 | 0.0065 | -0.0011 | -0.0213 | 0.0203 | -0.0627 | -0.0048 | -0.006 | -0.0428 | -0.0255 | -0.0012 | -0.0318 | -0.0088 | -0.0128 | -0.0086 | -0.0165 | -0.0298 | -0.0967 | -0.0481 | 0
3 | C=CCn1c(=O)c2cnc(Nc3ccc(N4CCN(C)CC4)cc3)nc2n1-c1cccc(C(C)(C)O)n1 [AZD1775] + C[C@@H]1COCCN1C2=NC(=NC(=C2)C3(CC3)[S@](=N)(=O)C)C4=C5C=CNC5=NC=C4 [AZD6738] (first compound max 1 µM, partner max 10 µM) | 0.0371 | 0.0369 | -0.0567 | 0.0228 | 0.0135 | -0.0203 | 0.0181 | 0.0412 | 0.0684 | 0.0431 | 0.0597 | 0.0269 | 0.086 | 0.0869 | 0.0714 | -0.0253 | -0.028 | 0.0242 | 0.0009 | 0.0105
4 | C=CCn1c(=O)c2cnc(Nc3ccc(N4CCN(C)CC4)cc3)nc2n1-c1cccc(C(C)(C)O)n1 [AZD1775] + C1CN(CCC1(C(=O)N[C@@H](CCO)C2=CC=C(C=C2)Cl)N)C3=NC=NC4=C3C=CN4 [Capivasertib] (first compound max 3 µM, partner max 3 µM) | -0.0244 | 0.0156 | -0.077 | -0.0162 | 0.0422 | -0.0493 | -0.0428 | -0.0369 | -0.0643 | 0.0131 | -0.0219 | -0.0675 | 0.0196 | -0.0066 | 0.028 | -0.0368 | -0.0893 | 0.0272 | -0.0352 | 0.0053
5 | Cc1c2c(nn1C)CSCc1cc(n(C)n1)CSc1cc(c3ccccc3c1)OCCCc1c(C(=O)O)n(C)c3c-2c(Cl)ccc13 [AZD5991] + C=CCn1c(=O)c2cnc(Nc3ccc(N4CCN(C)CC4)cc3)nc2n1-c1cccc(C(C)(C)O)n1 [AZD1775] (first compound max 1 µM, partner max 1 µM) | -0.0092 | -0.0133 | -0.0508 | 0.0031 | 0.0135 | 0.0156 | -0.0375 | -0.0611 | -0.0445 | 0.0478 | -0.0227 | 0 | -0.0087 | 0.0464 | -0.017 | -0.0548 | -0.0614 | 0.0285 | -0.0033 | -0.0453
6 | C=CCn1c(=O)c2cnc(Nc3ccc(N4CCN(C)CC4)cc3)nc2n1-c1cccc(C(C)(C)O)n1 [AZD1775] + O=C(c1cc(Cc2n[nH]c(=O)c3ccccc23)ccc1F)N1CCN(C(=O)C2CC2)CC1 [Olaparib] (first compound max 1 µM, partner max 10 µM) | -0.0452 | -0.0211 | -0.0383 | -0.0201 | -0.0297 | -0.0095 | -0.0025 | -0.0421 | 0.0627 | -0.0626 | 0.0046 | -0.0087 | -0.037 | 0.0253 | -0.0139 | -0.0605 | -0.012 | -0.0145 | -0.0523 | -0.0261
7 | COc1cccc(OCCCN)c1-c1cc(Nc2cnc(C#N)cn2)n[nH]1 [Prexasertib] + CCc1c2c(nc3ccc(O)cc13)-c1cc3c(c(=O)n1C2)COC(=O)[C@]3(O)CC [SN-38] (first compound max 1 µM, 7x7, partner max 0.3 µM) | 0.0573 | -0.0231 | -0.094 | 0.0186 | 0.128 | 0.0182 | -0.103 | 0.05 | 0.055 | 0.0187 | -0.0082 | -0.0234 | 0.07 | 0.0525 | 0.0183 | 0.0029 | -0.0355 | -0.0153 | -0.0378 | 0.0204
8 | COc1cccc2c1C(=O)c1c(O)c3c(c(O)c1C2=O)C[C@@](O)(C(=O)CO)C[C@@H]3O[C@H]1C[C@H](N)[C@H](O)[C@H](C)O1 [Doxorubicin] + Cc1cc2ncnn2cc1Nc1ncc2c(n1)n(C1CCOCC1)c(=O)n2C [AZD7648] (first compound max 1 µM, 7x7, partner max 10 µM) | 0.0266 | 0.0714 | 0.0611 | 0.0554 | -0.0541 | -0.0102 | 0.115 | 0.0261 | 0.124 | 0.162 | -0.0179 | 0.0885 | 0.0386 | 0.0587 | 0.0679 | 0.0216 | 0.0188 | 0.051 | 0.0309 | 0.067
9 | Cc1c2c(nn1C)CSCc1cc(n(C)n1)CSc1cc(c3ccccc3c1)OCCCc1c(C(=O)O)n(C)c3c-2c(Cl)ccc13 [AZD5991] + CCN(CCO)CCCOc1ccc2c(Nc3cc(CC(=O)Nc4cccc(F)c4)[nH]n3)ncnc2c1 [AZD2811] (first compound max 1 µM, 7x7, partner max 1 µM) | 0.0743 | -0.0295 | -0.0496 | 0.058 | 0.0482 | 0.0135 | 0.0265 | 0.0103 | 0.0011 | -0.0244 | 0.0839 | 0.0821 | -0.029 | 0.102 | 0.0906 | -0.0139 | -0.0673 | -0.0077 | 0.0389 | 0.016
10 | CN(CCO)CC[C@H](CSc1ccccc1)Nc1ccc(S(=O)(=O)NC(=O)c2ccc(N3CCC([C@@H](O)c4ccccc4-c4ccc(Cl)cc4)CC3)cc2)cc1S(=O)(=O)C(F)(F)F [AZD4320] + C[C@@H](Nc1cc(F)cc(F)c1)c1cc(C(=O)N(C)C)cc2c(=O)cc(N3CCOCC3)oc12 [AZD8186] (first compound max 1 µM, 7x7, partner max 3 µM) | 0.0218 | 0.0388 | -0.072 | 0.0562 | 0.0313 | -0.007 | 0.0338 | -0.0059 | 0.0851 | -0.027 | 0.0229 | -0.0709 | 0.0608 | 0.0343 | -0.0108 | 0.0346 | 0.0221 | -0.034 | 0.033 | 0.0942
11 | CN(C)CCCOc1ccc(-c2ccc3ncc4c(c3c2)n(C2CCOCC2)c(=O)n4C)cn1 [AZD0156] + C=CCn1c(=O)c2cnc(Nc3ccc(N4CCN(C)CC4)cc3)nc2n1-c1cccc(C(C)(C)O)n1 [AZD1775] (first compound max 1 µM, partner max 1 µM) | -0.0726 | 0.0047 | -0.0165 | -0.0223 | -0.045 | -0.0586 | -0.0029 | -0.0282 | -0.0114 | 0.0685 | -0.0875 | 0.0135 | -0.0307 | -0.0451 | 0.0039 | -0.0213 | -0.0197 | -0.0013 | 0.0243 | -0.0041
12 | CCc1c2c(nc3ccc(O)cc13)-c1cc3c(c(=O)n1C2)COC(=O)[C@]3(O)CC [SN-38] + CN(C)CCCOc1ccc(-c2ccc3ncc4c(c3c2)n(C2CCOCC2)c(=O)n4C)cn1 [AZD0156] (first compound max 0.3 µM, 7x7, partner max 1 µM) | -0.0477 | 0.0556 | 0.0143 | 0.0711 | -0.0254 | -0.0316 | -0.0584 | -0.0144 | -0.023 | 0.0736 | 0.0117 | 0.08 | 0.0759 | 0.0421 | 0.0401 | -0.033 | -0.0558 | 0.0735 | 0.0265 | 0.0517
